Reference: article PMC9073595, “Synthesis, human topoisomerase IIα inhibitory properties and molecular modeling studies of anti-proliferative curcumin mimics” (RSC Advances, 2019)

How the values were obtained:
[1] = system: RPE1 (normal human immortalized retinal pigment epithelial cell line); assay: MTT assay on normal cells, RPE1; format: cell-based; details: RPE-1, RPE1 normal (non-cancer) cell line, read-out: IC50, μM ± SD, RPE1
Experimental: In-vitro antitumor screening
The targeted piperidinecarboxamides 24‒51 were screened for their antitumor properties against HCT116 (colon), MCF7 (breast) and A431 (squamous skin) carcinoma cell lines by the standard mitochondrial dependent reduction of yellow MTT [3-(4,5-dimethylthiazol-2-yl)-2,5-diphenyl-tetrazolium bromide] to purple formazan technique.11 Cells were suspended in McCoy’s 5A medium for HCT116, DMEM for MCF-7 and A431 in addition to 1% antibiotic–antimycotic mixture (10000 μg ml-1 potassium penicillin, 10000 μg ml-1 streptomycin sulfate and 25 μg ml-1 amphotericin B), 10% fetal bovine serum and 1% L-glutamine at 37 °C, under 5% CO2 and 95% humidity. Cells were seeded at concentration of 30000 cells per well in fresh complete growth medium in 96-well tissue culture microtiter plates for 24 h. Media was aspirated, fresh complete medium was added and cells were incubated with different concentrations of the tested compound to give a final concentration of [50, 25, 12.5 and 6.25 μM ([…] and 0.375 μM for the high potent analogues)]. 0.5% DMSO was used as negative control and 5-fluorouracil was used as positive control (standard reference). Triplicate wells were prepared for each individual dose. After 72 h of incubation, medium was aspirated, 40 μl MTT salt (2.5 mg ml-1) were added to each well and incubated for further 4 h at 37 °C.
To stop the reaction and dissolve the formed crystals, 150 μl of 10% sodium dodecyl sulfate (SDS) in deionized water were added to each well and incubated overnight at 37 °C. The absorbance was then measured at 570 nm and a reference wavelength of 595 nm.
Data were collected as mean values for experiments performed in triplicates for each individual dose which had been measured by MTT assay. Control experiments did […]
survival was calculated according to equ. (1).
Surviving fraction = … . (1)
The synthesized compounds 24‒51 were also tested against RPE1 (normal human immortalized retinal pigment epithelial cell line) cell to determine the toxicity/selectivity […]
towards normal cells relative to the carcinoma cell lines utilized. The IC50 (concentration […]
was determined using Graph-Pad PRISM version-5 software. Statistical calculations for determination of the mean and standard error values were determined by SPSS 16 […]
8:1 which is the ratio between the data points and the number of QSAR descriptor).
Human DNA topoisomerase IIα inhibitory properties

[2] = system: HCT116 (colon) carcinoma cell line; assay: MTT anti-proliferative assay, HCT116; format: cell-based; details: Homo sapiens, HCT-116, 72 h; read-out: IC50, μM ± SD, HCT116
[3] = biological target: T1, human DNA topoisomerase IIα (Homo sapiens, UniProt P11388); assay: Human DNA topoisomerase IIα activity assay (TopoGEN kit, plasmid based); format: biochemical
T1 construct: purchased TopoGEN, Inc

[4] = system: A431 (squamous skin) carcinoma cell line; assay: MTT anti-proliferative assay, A431; format: cell-based; details: Homo sapiens, A-431, 72 h; read-out: IC50, μM ± SD, A431
[5] = system: MCF7 (breast) carcinoma cell line; assay: MTT anti-proliferative assay, MCF7; format: cell-based; details: Homo sapiens, MCF7, 72 h; read-out: IC50, μM ± SD, MCF7

T1 sequence (P11388 whole entry): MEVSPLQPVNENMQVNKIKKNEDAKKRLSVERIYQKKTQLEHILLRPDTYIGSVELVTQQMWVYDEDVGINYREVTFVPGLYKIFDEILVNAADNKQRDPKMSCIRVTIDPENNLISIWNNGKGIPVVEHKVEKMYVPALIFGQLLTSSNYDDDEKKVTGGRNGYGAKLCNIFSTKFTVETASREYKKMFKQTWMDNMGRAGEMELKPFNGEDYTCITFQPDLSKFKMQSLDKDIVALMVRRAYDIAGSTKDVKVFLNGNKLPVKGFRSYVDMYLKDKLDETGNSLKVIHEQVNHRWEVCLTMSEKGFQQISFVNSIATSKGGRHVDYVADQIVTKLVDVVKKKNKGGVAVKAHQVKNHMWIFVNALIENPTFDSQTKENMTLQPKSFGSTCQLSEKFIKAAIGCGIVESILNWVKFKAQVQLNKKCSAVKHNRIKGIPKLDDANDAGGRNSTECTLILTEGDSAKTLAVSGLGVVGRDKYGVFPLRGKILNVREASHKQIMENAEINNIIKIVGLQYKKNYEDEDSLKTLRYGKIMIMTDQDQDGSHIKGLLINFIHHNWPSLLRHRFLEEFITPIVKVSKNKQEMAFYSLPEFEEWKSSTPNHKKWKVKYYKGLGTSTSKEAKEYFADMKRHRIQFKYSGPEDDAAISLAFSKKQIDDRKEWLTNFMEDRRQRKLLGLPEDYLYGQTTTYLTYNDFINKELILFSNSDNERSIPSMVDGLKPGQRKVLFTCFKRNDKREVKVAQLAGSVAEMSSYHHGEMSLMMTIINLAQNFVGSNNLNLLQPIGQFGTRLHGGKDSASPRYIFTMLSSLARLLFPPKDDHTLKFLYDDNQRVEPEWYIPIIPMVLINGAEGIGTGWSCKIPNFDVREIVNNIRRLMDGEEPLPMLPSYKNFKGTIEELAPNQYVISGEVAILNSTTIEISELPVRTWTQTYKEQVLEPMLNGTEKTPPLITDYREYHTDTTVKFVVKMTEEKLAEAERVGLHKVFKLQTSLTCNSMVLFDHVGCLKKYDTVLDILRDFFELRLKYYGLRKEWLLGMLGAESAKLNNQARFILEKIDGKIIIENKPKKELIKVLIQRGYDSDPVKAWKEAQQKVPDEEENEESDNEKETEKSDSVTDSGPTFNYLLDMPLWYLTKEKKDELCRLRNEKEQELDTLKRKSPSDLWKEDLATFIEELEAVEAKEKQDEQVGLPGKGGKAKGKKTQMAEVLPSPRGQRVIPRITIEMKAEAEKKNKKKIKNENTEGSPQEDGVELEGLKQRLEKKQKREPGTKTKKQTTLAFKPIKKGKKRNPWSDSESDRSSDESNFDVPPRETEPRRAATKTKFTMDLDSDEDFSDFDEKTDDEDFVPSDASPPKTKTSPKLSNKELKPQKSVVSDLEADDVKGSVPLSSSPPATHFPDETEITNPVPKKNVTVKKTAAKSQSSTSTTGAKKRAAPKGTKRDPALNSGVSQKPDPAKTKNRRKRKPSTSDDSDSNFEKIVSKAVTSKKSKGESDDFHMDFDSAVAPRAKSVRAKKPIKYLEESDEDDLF

Compound | IC50 [1] | melting point | IC50 [2] | IC50 [3] | IC50 [4] | IC50 [5]
COc1ccc(NC(=O)N2C/C(=C\c3ccc(F)cc3)C(=O)/C(=C/c3ccc(F)cc3)C2)cc1 [Compound 36, 3,5-Bis[(E)-4-fluorobenzylidene]-N-(4-methoxyphenyl)-4-oxopiperidine-1-carboxamide] | 9.46 ± 1.86 µM | 189 to 191 °C | 0.62 ± 0.05 µM | 23 ± 1.37 µM | 1.31 ± 0.08 µM | 1.71 ± 0.12 µM
O=C1/C(=C/c2ccc(F)cc2)CN(C(=O)Nc2ccc(Cl)cc2)C/C1=C\c1ccc(F)cc1 [Compound 35, N-(4-Chlorophenyl)-3,5-bis[(E)-4-fluorobenzylidene]-4-oxopiperidine-1-carboxamide] | 8.26 ± 2.33 µM | 192 to 194 °C | 0.56 ± 0.06 µM | 26.4 ± 1.61 µM | 1.2 ± 0.14 µM | 1.36 ± 0.17 µM
O=C1/C(=C/c2ccc(F)cc2)CN(C(=O)NCc2ccccc2)C/C1=C\c1ccc(F)cc1 [Compound 38, N-Benzyl-3,5-bis[(E)-4-fluorobenzylidene]-4-oxopiperidine-1-carboxamide] | 10.9 ± 1.42 µM | 178 to 180 °C | 0.56 ± 0.03 µM | 35 ± 2.08 µM | 1.33 ± 0.17 µM | 2.16 ± 0.15 µM
COc1ccc(NC(=O)N2C/C(=C\c3ccc(C)cc3)C(=O)/C(=C/c3ccc(C)cc3)C2)cc1 [Compound 40, N-(4-Methoxyphenyl)-3,5-bis[(E)-4-methylbenzylidene]-4-oxopiperidine-1-carboxamide] | > 50 µM | 230 to 232 °C | 2.73 ± 0.2 µM | 40.3 ± 1.56 µM | 4.9 ± 0.34 µM | 5.1 ± 0.3 µM
COc1ccc(/C=C2\CN(C(=O)Nc3ccc(OC)cc3)C/C(=C\c3ccc(OC)cc3)C2=O)cc1 [Compound 45, 3,5-Bis[(E)-4-methoxybenzylidene]-N-(4-methoxyphenyl)-4-oxopiperidine-1-carboxamide] | > 50 µM | 212 to 214 °C | 1.38 ± 0.15 µM | 39.3 ± 1.52 µM | 11.3 ± 1.1 µM | 5.85 ± 0.31 µM
CCNC(=O)N1C/C(=C\c2ccc(F)cc2)C(=O)/C(=C/c2ccc(F)cc2)C1 [Compound 37, N-Ethyl-3,5-bis[(E)-4-fluorobenzylidene]-4-oxopiperidine-1-carboxamide] | 9.78 ± 1.53 µM | 180 to 182 °C | 0.57 ± 0.07 µM | 27.2 ± 1.72 µM | 1.18 ± 0.11 µM | 2.32 ± 0.3 µM
O=C1/C(=C/c2ccc(Cl)cc2)CN(C(=O)Nc2ccccc2)C/C1=C\c1ccc(Cl)cc1 [Compound 29, 3,5-Bis[(E)-4-chlorobenzylidene]-4-oxo-N-phenylpiperidine-1-carboxamide] | 9.67 ± 2.03 µM | 205 to 207 °C | 0.7 ± 0.06 µM | 29 ± 1.39 µM | 1.29 ± 0.15 µM | 1.33 ± 0.24 µM
CCNC(=O)N1C/C(=C\c2ccc(C)cc2)C(=O)/C(=C/c2ccc(C)cc2)C1 [Compound 41, N-Ethyl-3,5-bis[(E)-4-methylbenzylidene]-4-oxopiperidine-1-carboxamide] | 18.9 ± 1.33 µM | 174 to 176 °C | 2.26 ± 0.23 µM | 50.2 ± 1.94 µM | 2.64 ± 0.27 µM | 4.58 ± 0.28 µM
COc1ccc(/C=C2\CN(C(=O)Nc3ccccc3)C/C(=C\c3ccc(OC)cc3)C2=O)cc1 [Compound 43, 3,5-Bis[(E)-4-methoxybenzylidene]-4-oxo-N-phenylpiperidine-1-carboxamide] | > 50 µM | 190 to 192 °C | 1.23 ± 0.15 µM | 28.3 ± 1.09 µM | 2.72 ± 0.2 µM | 3.96 ± 0.23 µM
COc1ccc(/C=C2\CN(C(=O)Nc3ccc(Cl)cc3)C/C(=C\c3ccc(OC)cc3)C2=O)cc1 [Compound 44, N-(4-Chlorophenyl)-3,5-bis[(E)-4-methoxybenzylidene]-4-oxopiperidine-1-carboxamide] | > 50 µM | 185 to 187 °C | 1.11 ± 0.09 µM | 46.2 ± 1.79 µM | 2.85 ± 0.16 µM | 4.17 ± 0.27 µM
CCNC(=O)N1C/C(=C\c2ccc(OC)cc2)C(=O)/C(=C/c2ccc(OC)cc2)C1 [Compound 46, N-Ethyl-3,5-bis[(E)-4-methoxybenzylidene]-4-oxopiperidine-1-carboxamide] | 47.7 ± 3.05 µM | 173 to 175 °C | 1.5 ± 0.14 µM | 56.2 ± 2.18 µM | 8.83 ± 1.26 µM | 5.73 ± 0.33 µM
Cc1ccc(/C=C2\CN(C(=O)NCc3ccccc3)C/C(=C\c3ccc(C)cc3)C2=O)cc1 [Compound 42, N-Benzyl-3,5-bis[(E)-4-methylbenzylidene]-4-oxopiperidine-1-carboxamide] | 47 ± 2.17 µM | 166 to 168 °C | 23 ± 1.82 µM | 31.5 ± 1.22 µM | 8.75 ± 0.4 µM | 4.9 ± 0.26 µM
Cc1ccc(/C=C2\CN(C(=O)Nc3ccccc3)C/C(=C\c3ccc(C)cc3)C2=O)cc1 [Compound 39, 3,5-Bis[(E)-4-methylbenzylidene]-4-oxo-N-phenylpiperidine-1-carboxamide] | > 50 µM | 221 to 223 °C | 1.44 ± 0.17 µM | 41.3 ± 1.6 µM | 2.57 ± 0.15 µM | 3.96 ± 0.29 µM
COc1ccc(/C=C\c2cc(OC)c(OC)c(OC)c2)cc1O [Combretastatin A-4, reference compound] |  |  |  | 22 ± 0.85 µM |  | 
CCNC(=O)N1C/C(=C\c2ccccc2)C(=O)/C(=C/c2ccccc2)C1 [Compound 27, 3,5-Di[(E)-benzylidene]-N-ethyl-4-oxopiperidine-1-carboxamide] | > 50 µM | 172 to 174 °C | 1.61 ± 0.14 µM | 33.6 ± 1.3 µM | 2.56 ± 0.29 µM | 2.95 ± 0.24 µM
O=C1/C(=C/c2ccc(F)cc2)CN(C(=O)Nc2ccccc2)C/C1=C\c1ccc(F)cc1 [Compound 34, 3,5-Bis[(E)-4-fluorobenzylidene]-4-oxo-N-phenylpiperidine-1-carboxamide] | 17.5 ± 2.16 µM | 191 to 193 °C | 0.56 ± 0.04 µM | 30.7 ± 1.32 µM | 1.27 ± 0.09 µM | 2.34 ± 0.29 µM
COc1ccc(NC(=O)N2C/C(=C\c3ccccc3)C(=O)/C(=C/c3ccccc3)C2)cc1 [Compound 26, 3,5-Di[(E)-benzylidene]-N-(4-methoxyphenyl)-4-oxopiperidine-1-carboxamide] | 17.7 ± 1.98 µM | 184 to 186 °C | 1.43 ± 0.2 µM |  | 2.83 ± 0.36 µM | 2.48 ± 0.31 µM
O=C1/C(=C/c2ccccc2)CN(C(=O)NCc2ccccc2)C/C1=C\c1ccccc1 [Compound 28, N-Benzyl-3,5-di[(E)-benzylidene]-4-oxopiperidine-1-carboxamide] | 12 ± 1.76 µM | 163 to 165 °C | 1.31 ± 0.22 µM |  | 2.58 ± 0.27 µM | 2.58 ± 0.3 µM
